Data as given in PubChem BioAssay (NCI).
Values joined by “and” are separate entries in the source; they are usually repeats but may differ in a detail not shown here. Equal entries are not always repeated.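 These data come from cells grown in 96-well plates and exposed to compound for 48 hours at five concentrations. Here, GI50 denotes the concentration required for 50% inhibition of growth. TGI: total growth inhibition.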

Columns and labels:
Experiment in all cases: DTP human tumour cell line panel, 48 h
786-0 renal = test system: 786-0 renal
HCT-116 colon = test system: HCT-116 colon
IGROV1 ovarian = test system: IGROV1 ovarian
LOX IMVI melanoma = test system: LOX IMVI melanoma
M14 melanoma = test system: M14 melanoma
MDA-MB-231 breast = test system: MDA-MB-231 breast
NCI-H460 lung = test system: NCI-H460 lung
SF-539 CNS = test system: SF-539 CNS
SR leukemia = test system: SR leukemia
UACC-62 melanoma = test system: UACC-62 melanoma

COc1cc2c3c(n(CCCNCCCNCCCN)c(=O)c2cc1OC)-c1cc2c(cc1C3=O)OCO2
GI50 (786-0 renal): 69.5 µM
TGI (786-0 renal): > 100 µM
GI50 (HCT-116 colon): 43 µM
TGI (HCT-116 colon): > 100 µM
GI50 (IGROV1 ovarian): > 100 µM
TGI (IGROV1 ovarian): > 100 µM
GI50 (LOX IMVI melanoma): 32.4 µM
TGI (LOX IMVI melanoma): > 100 µM
GI50 (M14 melanoma): 52 µM
TGI (M14 melanoma): > 100 µM
GI50 (MDA-MB-231 breast): > 100 µM
TGI (MDA-MB-231 breast): > 100 µM
GI50 (NCI-H460 lung): > 100 µM
TGI (NCI-H460 lung): > 100 µM
GI50 (SF-539 CNS): > 100 µM
TGI (SF-539 CNS): > 100 µM
GI50 (SR leukemia): 13.6 µM
TGI (SR leukemia): 89 µM
GI50 (UACC-62 melanoma): 44.1 µM
TGI (UACC-62 melanoma): > 100 µM

COc1cc(/C=C2\SC(N3CCCCC3)=NC2=O)ccc1OCCCCCCOc1ccc(/C=C2\SC(N3CCCCC3)=NC2=O)cc1OC
GI50 (786-0 renal): 7.71 µM
TGI (786-0 renal): 27.8 µM
GI50 (HCT-116 colon): 12.6 µM
TGI (HCT-116 colon): 31.2 µM
GI50 (IGROV1 ovarian): 11.1 µM
TGI (IGROV1 ovarian): 43 µM
GI50 (LOX IMVI melanoma): 8.35 µM
TGI (LOX IMVI melanoma): 35.7 µM
GI50 (M14 melanoma): 21.9 µM
TGI (M14 melanoma): > 100 µM
GI50 (MDA-MB-231 breast): 2.13 µM
TGI (MDA-MB-231 breast): 21 µM
GI50 (NCI-H460 lung): 6.84 µM
TGI (NCI-H460 lung): 23.8 µM
GI50 (SF-539 CNS): 6.95 µM
TGI (SF-539 CNS): 24.2 µM
GI50 (SR leukemia): 9.16 µM
TGI (SR leukemia): 65.8 µM
GI50 (UACC-62 melanoma): 16.1 µM
TGI (UACC-62 melanoma): 67.1 µM

COc1ccc(C(O)c2cc3c(N)c(C(=O)Nc4cccc(Br)c4C)sc3nc2C)cc1 (stereo not drawn)
GI50 (786-0 renal): 0.254 µM
TGI (786-0 renal): > 33.3 µM
GI50 (HCT-116 colon): 0.141 µM
TGI (HCT-116 colon): 7.46 µM
GI50 (IGROV1 ovarian): 0.375 µM
TGI (IGROV1 ovarian): 18.8 µM
GI50 (LOX IMVI melanoma): 0.187 µM
TGI (LOX IMVI melanoma): 12.4 µM
GI50 (M14 melanoma): 0.109 µM
TGI (M14 melanoma): > 24 µM
GI50 (MDA-MB-231 breast): 0.462 µM
TGI (MDA-MB-231 breast): 8.96 µM
GI50 (NCI-H460 lung): 0.121 µM
TGI (NCI-H460 lung): 1.65 µM
GI50 (SF-539 CNS): 0.131 µM
TGI (SF-539 CNS): 2.88 µM
GI50 (SR leukemia): 0.125 µM
TGI (SR leukemia): > 33.3 µM
GI50 (UACC-62 melanoma): 0.141 µM
TGI (UACC-62 melanoma): > 31 µM

CNC(=O)OCc1nc(SC)n(C)c1COC(=O)NC
TGI (786-0 renal): 413 µM
TGI (HCT-116 colon): 372 µM
TGI (IGROV1 ovarian): 531 µM
TGI (LOX IMVI melanoma): 364 µM
TGI (M14 melanoma): 347 µM
TGI (MDA-MB-231 breast): 430 µM
TGI (NCI-H460 lung): 264 µM
TGI (SF-539 CNS): 299 µM
TGI (SR leukemia): 473 µM
TGI (UACC-62 melanoma): 103 µM

CCOc1ccc2cc(-c3nn(CC4CCNCC4)c4ncnc(N)c34)ccc2c1
GI50 (786-0 renal): 14.6 µM
TGI (786-0 renal): 28.4 µM
GI50 (HCT-116 colon): 13.4 µM
TGI (HCT-116 colon): 29.3 µM
GI50 (IGROV1 ovarian): 11.7 µM
TGI (IGROV1 ovarian): 27.8 µM
GI50 (LOX IMVI melanoma): 26.8 µM
TGI (LOX IMVI melanoma): > 100 µM
GI50 (M14 melanoma): 14.1 µM
TGI (M14 melanoma): 29.3 µM
GI50 (MDA-MB-231 breast): 11.1 µM
TGI (MDA-MB-231 breast): 25.5 µM
GI50 (NCI-H460 lung): 16.8 µM
TGI (NCI-H460 lung): 32.8 µM
GI50 (SF-539 CNS): 13.9 µM
TGI (SF-539 CNS): 26.9 µM
GI50 (SR leukemia): 4.23 µM
TGI (SR leukemia): 19.6 µM
GI50 (UACC-62 melanoma): 16.9 µM
TGI (UACC-62 melanoma): 32.1 µM

Nc1ncc2ncn(C3CCC(CO)O3)c2n1 (stereo not drawn)
TGI (786-0 renal): > 100 µM
TGI (HCT-116 colon): > 100 µM
TGI (IGROV1 ovarian): > 100 µM
TGI (LOX IMVI melanoma): > 100 µM
TGI (M14 melanoma): > 100 µM
TGI (MDA-MB-231 breast): > 100 µM
TGI (NCI-H460 lung): > 100 µM
TGI (SF-539 CNS): > 100 µM
TGI (SR leukemia): > 100 µM
TGI (UACC-62 melanoma): > 100 µM

CC1OC(OC2C(O)C(O)C(O)C(O)C2O)C(N)CC1N=C(N)C(=O)O (stereo not drawn)
TGI (786-0 renal): > 100 µM
TGI (HCT-116 colon): > 100 µM
TGI (IGROV1 ovarian): > 100 µM
TGI (LOX IMVI melanoma): > 100 µM
TGI (M14 melanoma): > 100 µM
TGI (MDA-MB-231 breast): > 100 µM
TGI (NCI-H460 lung): > 100 µM
TGI (SF-539 CNS): > 100 µM
TGI (SR leukemia): > 100 µM
TGI (UACC-62 melanoma): > 100 µM

N#Cc1cc(S(=O)(=O)Nc2nc3cc(Cl)ccc3o2)c(SCc2ccccc2)cc1Cl
GI50 (786-0 renal): 15.7 µM
TGI (786-0 renal): 29.1 µM
GI50 (HCT-116 colon): 15.4 µM
TGI (HCT-116 colon): 28.7 µM
GI50 (IGROV1 ovarian): 15 µM
TGI (IGROV1 ovarian): 28.3 µM
GI50 (LOX IMVI melanoma): 13.5 µM
TGI (LOX IMVI melanoma): 26.3 µM
GI50 (M14 melanoma): 12.6 µM
TGI (M14 melanoma): 25.1 µM
GI50 (MDA-MB-231 breast): 10.7 µM
TGI (MDA-MB-231 breast): 22.5 µM
GI50 (NCI-H460 lung): 15.3 µM
TGI (NCI-H460 lung): 28.6 µM
GI50 (SF-539 CNS): 13.5 µM
TGI (SF-539 CNS): 26.4 µM
GI50 (SR leukemia): 15.2 µM
TGI (SR leukemia): 28.5 µM
GI50 (UACC-62 melanoma): 13.2 µM
TGI (UACC-62 melanoma): 25.9 µM

Cc1cc(S(N)(=O)=O)c(S/C(=N\NS(=O)(=O)c2ccccc2)c2ccc(Cl)cc2)cc1Cl
GI50 (786-0 renal): > 100 µM
TGI (786-0 renal): > 100 µM
GI50 (HCT-116 colon): 77 µM
TGI (HCT-116 colon): > 100 µM
GI50 (IGROV1 ovarian): > 100 µM
TGI (IGROV1 ovarian): > 100 µM
GI50 (LOX IMVI melanoma): > 100 µM
TGI (LOX IMVI melanoma): > 100 µM
GI50 (M14 melanoma): 87.9 µM
TGI (M14 melanoma): > 100 µM
GI50 (MDA-MB-231 breast): > 100 µM
TGI (MDA-MB-231 breast): > 100 µM
GI50 (NCI-H460 lung): 65.4 µM
TGI (NCI-H460 lung): > 100 µM
GI50 (SF-539 CNS): > 100 µM
TGI (SF-539 CNS): > 100 µM
GI50 (SR leukemia): 49.2 µM
TGI (SR leukemia): > 100 µM
GI50 (UACC-62 melanoma): > 100 µM
TGI (UACC-62 melanoma): > 100 µM

O=CN1N=C(c2cccc(Nc3ccnc4cc(Cl)ccc34)c2)CC1c1ccc(Cl)cc1 (stereo not drawn)
GI50 (786-0 renal): 4.73 µM
TGI (786-0 renal): > 100 µM
GI50 (HCT-116 colon): 0.597 µM
TGI (HCT-116 colon): 5.29 µM
GI50 (IGROV1 ovarian): 0.757 µM
TGI (IGROV1 ovarian): > 100 µM
GI50 (LOX IMVI melanoma): 1.56 µM
TGI (LOX IMVI melanoma): 10.3 µM
GI50 (M14 melanoma): 1.04 µM
TGI (M14 melanoma): > 100 µM
GI50 (MDA-MB-231 breast): 2.12 µM
TGI (MDA-MB-231 breast): > 100 µM
GI50 (NCI-H460 lung): 0.787 µM
TGI (NCI-H460 lung): > 100 µM
GI50 (SF-539 CNS): 3.78 µM
TGI (SF-539 CNS): 69.5 µM
GI50 (SR leukemia): 0.367 µM
TGI (SR leukemia): 2.13 µM
GI50 (UACC-62 melanoma): 1.63 µM
TGI (UACC-62 melanoma): > 100 µM

COc1cc(-c2nn(-c3cccc(NC(=O)CCNc4ccc(N5CCOCC5)cc4)c3)cc2-c2ccncc2)ccc1Cl
GI50 (786-0 renal): 2.87 µM
TGI (786-0 renal): 34.7 µM
GI50 (HCT-116 colon): 2.31 µM
TGI (HCT-116 colon): > 100 µM
GI50 (IGROV1 ovarian): 3.31 µM
TGI (IGROV1 ovarian): > 100 µM
GI50 (LOX IMVI melanoma): 2.6 µM
TGI (LOX IMVI melanoma): 13 µM
GI50 (M14 melanoma): 2.58 µM
TGI (M14 melanoma): 10.5 µM
GI50 (MDA-MB-231 breast): 2.05 µM
TGI (MDA-MB-231 breast): 7.18 µM
GI50 (NCI-H460 lung): 2.95 µM
TGI (NCI-H460 lung): 30 µM
GI50 (SF-539 CNS): 2.91 µM
TGI (SF-539 CNS): 19.4 µM
GI50 (SR leukemia): 2.13 µM
TGI (SR leukemia): 9.09 µM
GI50 (UACC-62 melanoma): 1.88 µM
TGI (UACC-62 melanoma): 4.89 µM

CCOC(=O)/C(=C\c1ccc2ccccc2c1)P(=O)(OCC)OCC
GI50 (786-0 renal): 2.26 µM
TGI (786-0 renal): 5.61 µM
GI50 (HCT-116 colon): 2.22 µM
TGI (HCT-116 colon): 5.08 µM
GI50 (IGROV1 ovarian): 3 µM
TGI (IGROV1 ovarian): 8.94 µM
GI50 (LOX IMVI melanoma): 1.58 µM
TGI (LOX IMVI melanoma): 3.08 µM
GI50 (M14 melanoma): 2.18 µM
TGI (M14 melanoma): 5.59 µM
GI50 (MDA-MB-231 breast): 3.57 µM
TGI (MDA-MB-231 breast): 13.4 µM
GI50 (NCI-H460 lung): 2.71 µM
TGI (NCI-H460 lung): 9.2 µM
GI50 (SF-539 CNS): 2.29 µM
TGI (SF-539 CNS): 5.17 µM
GI50 (SR leukemia): 1.69 µM
TGI (SR leukemia): 8.19 µM
GI50 (UACC-62 melanoma): 2.33 µM
TGI (UACC-62 melanoma): 8.53 µM

NCCCN=c1ccc2c3c1c(O)c1c(O)ccc(=O)c1c3[nH]n2CCNCCO
GI50 (786-0 renal): 0.723 µM
TGI (786-0 renal): 11.4 µM and 5.28 µM
GI50 (HCT-116 colon): 2.06 µM and 1.46 µM
TGI (HCT-116 colon): 9.67 µM and 20.2 µM
TGI (IGROV1 ovarian): 15.4 µM and 129 µM
GI50 (LOX IMVI melanoma): 1.53 µM
TGI (LOX IMVI melanoma): 5.8 µM
GI50 (M14 melanoma): 3.67 µM
TGI (M14 melanoma): 14.2 µM and 28 µM
GI50 (MDA-MB-231 breast): 2.43 µM
TGI (MDA-MB-231 breast): 12.3 µM and 25 µM
GI50 (NCI-H460 lung): 0.117 µM and 0.12 µM
TGI (NCI-H460 lung): 3.66 µM and 15.7 µM
GI50 (SF-539 CNS): 0.854 µM and 1.53 µM
TGI (SF-539 CNS): 5.31 µM and 7.66 µM
GI50 (SR leukemia): 0.291 µM
GI50 (UACC-62 melanoma): 0.792 µM
TGI (UACC-62 melanoma): 5.66 µM and 6.48 µM
